Like-named read-outs stand apart in the source and are kept apart here. Numbered stars: 1 amine (or outer) side, 2 acyl side, 3 side chain; on linkers, the order of the positions; unused ones are H or OH. Bridge positions count the residues as written; N and C are the ends. Square brackets hold non-standard residues; d marks the D form. Peptide text beside a SMILES is read from it. Adda = CO[C@@H](Cc1ccccc1)[C@@H](C)/C=C(C)/C=C/[C@H](N[*:1])[C@H](C)C(=O)[*:2]; dAsp(3S-Me) = C[C@H](C(=O)[*:3])[C@@H](N[*:1])C(=O)[*:2]; d(γGlu) = O=C(O)[C@@H](CCC(=O)[*:2])N[*:1]; NMeDha = C=C(NC)C(=O)O
Key:
OATP1B1 = assay: in vitro; conditions: human
HeLa Control cells [1] = conditions: 24 h
[2] = system: OATP1B1- and OATP1B3-expressing HeLa or RKO cell lines
[3] = system: OATP1B3-expressing HeLa cells; conditions: for IC50: human
[4] = system: OATP1B3-expressing HeLa cells; conditions: cited from earlier work
[5] = system: OATP1B1-expressing HeLa cells; conditions: read-out: IC50 HeLa B1; cited from earlier work
HeLa Control cells [6] = conditions: cited from earlier work
PP2A = conditions: cited from earlier work

| SMILES | IC50 (OATP1B1) | IC50 (HeLa Control cells [1]) | IC50 values (potency grouping) [2] | transporter selectivity (in words) [2] | Ratio IC50 B1/B3 HeLa [3] | IC50 [3] | Ratio IC50 B1/B3 HeLa [4] | IC50 ([4]; read-out: IC50 HeLa B3) | IC50 [5] | IC50 (HeLa Control cells [6]) | PP2A inhibition compared with 1 (PP2A) | toxicity in the present assay compared with 1 (times lower) [2] | IC50 ([2]; read-out: IC50 values (potency grouping)) |
| --- | --- | --- | --- | --- | --- | --- | --- | --- | --- | --- | --- | --- | --- |
| C/C=C1/NC(=O)CC[C@H](C(=O)O)NC(=O)[C@@H](C)[C@H](/C=C/C(C)=C/[C@H](C)[C@H](Cc2ccccc2)OC)NC(=O)[C@H](Cc2ccc(O)cc2)NC(=O)C[C@H](C(=O)O)NC(=O)[C@H](CCc2ccc(O)cc2)NC(=O)[C@@H](C)NC1=O [compound 18, [D-Asp^3,(E)-Dhb^7]MC-HtyY] | 0.515 nM | > 10 nM | sub-nanomolar | most OATP1B3 selective | 6.6 | 0.078 nM | – | – | – | – | – | – | – |
| C=C1C(=O)N[C@H](C)C(=O)N[C@@H](CCCNC(=N)N)C(=O)N[C@@H](C(=O)O)[C@H](C)C(=O)N[C@@H](CCCNC(=N)N)C(=O)N[C@@H](/C=C/C(C)=C/[C@H](C)[C@H](Cc2ccccc2)OC)[C@H](C)C(=O)N[C@@H](C(=O)O)CCC(=O)N1C [compound 10, RR] (R[Adda][d(γGlu)][NMeDha][dA]R[dAsp(3S-Me)]-OH; lactam N-7) | – | – | – | most OATP1B3 selective | – | – | 6.6 | 580 nM | 3800 nM | > 10000 nM | about twenty times weaker | about 500 times | > 100 nM |
| C/C=C1/NC(=O)CC[C@H](C(=O)O)NC(=O)[C@@H](C)[C@H](/C=C/C(C)=C/[C@H](C)[C@H](Cc2ccccc2)OC)NC(=O)[C@H](CCc2ccc(O)cc2)NC(=O)C[C@H](C(=O)O)NC(=O)[C@H](CCc2ccc(O)cc2)NC(=O)[C@@H](C)NC1=O [compound 19, [D-Asp^3,(E)-Dhb^7]MC-HtyHty] | 0.39 nM | > 10 nM | sub-nanomolar | – | 2.2 | 0.18 nM | – | – | – | – | – | – | – |

Reference: PMC3948918 (PLoS ONE, 2014)
